Test [1] concerns Karpas 422 cells (EZH2 Y641N). Kind of test: Karpas 422 cell viability (Cell Titre Glo). The note with it: Homo sapiens, CTG viability, Day 4, Day 7 or Day 11 (time point not given), read-out: IC50 (nM), Inhibiting Proliferation of Cells Expressing an Activating Mutant Form of EZH2. It counts as cell-based. The protocol: Karpas 422 cell line is a human B cell non-Hodgkin's lymphoma cell line established from a patient having DLBCL. This EZH2 heterozygotic cell line expresses a mutant form of EZH2 enzyme (Y641N) that increases histone H3 methylation and this mutation has been implicated in the tumorgenesis of lymphomas, such as DLBCL.
Karpas 422 cells (PHE cat no., 06101702) were cultured in RPMI medium supplemented with 20% fetal bovine serum and 1% penicillin/1% streptomycin and plated at a density of 1000 cells/90 μl/well in 96 well white assay plates. A dose response curve for compounds of the present invention was determined by adding a 10 μl aliquot of stock solutions of varying concentrations of compounds to the same medium in each well, over a concentration range of 10 μM using 3-fold dilutions to a final concentration of 1.5 nM. The plates were incubated at 37° C. for predetermined time periods, Day 4, Day 7, or Day 11, and the viability of the cells was measured using a CTG assay kit (Cell Titre Glo; Promega cat. no G7573) on Day 4 and Day 7 in accordance with the manufacturer's instructions.
For the viability assay for the Day 11 plates, the plates were subjected to centrifugation at 1100 rpm for five minutes on Day 7 and the supernatant was removed by aspiration. The cells were resuspended in 90 μl aliquot of the appropriate growth medium lacking the compound followed by addition of 10 μl of a 10× stock of the same compound at the same concentration. The viability of the Day 11 cells was measured using the CTG assay kit described above in accordance with the manufacturer's instructions. The IC50 values for each compound at each predetermined time point were calculated using Graph pad PRISM software and the results are shown in Table 8. A=≤250 nM; B=[…]−≤500 nM; C=>500 nM and N.D.=not determined.

For test [2], the target named is purified human, His-tagged PRC2 complex (Homo sapiens (Human), UniProt O75530). Kind of test: Hot Spot HMT assay, inhibition of PRC2 enzymatic activity. It counts as biochemical. As to conditions: 10 nM PRC2 complex, 0.05 mg/ml core histone H3, 1 μM 3H-SAM, 1 hr at 30° C.; read-out: IC50, Inhibition of PRC2-mediated Enzymatic Activity. The protocol: Ten-point dose-response curves for compounds of the present invention were determined using a Hot Spot HMT assay (Reaction Biology Corp; see Horiuchi et al., Assay Drug Dev Technol. (2013) 4: 227-236 doi: 10.1089/adt.2012.480). The assay uses purified human, His-tagged PRC2 complex, including N-terminal His-tagged EZH2 enzyme, N-terminal Flag-tagged embryonic ectoderm development protein (EED), N-terminal His-tagged suppressor of zeste 12 (SUZ12), N-terminal His-tagged AEBP2, and N-terminal His-tagged RbAp48. In this assay, the transfer of the tritiated methyl group from radiolabeled S-adenosyl methionine (SAM) to purified core histone protein by EZH2 is quantitated after filtration to determine the activity of the core PRC2 complex in the presence and absence of compound.
Chain of purified human, His-tagged PRC2 complex (Q15910 whole entry): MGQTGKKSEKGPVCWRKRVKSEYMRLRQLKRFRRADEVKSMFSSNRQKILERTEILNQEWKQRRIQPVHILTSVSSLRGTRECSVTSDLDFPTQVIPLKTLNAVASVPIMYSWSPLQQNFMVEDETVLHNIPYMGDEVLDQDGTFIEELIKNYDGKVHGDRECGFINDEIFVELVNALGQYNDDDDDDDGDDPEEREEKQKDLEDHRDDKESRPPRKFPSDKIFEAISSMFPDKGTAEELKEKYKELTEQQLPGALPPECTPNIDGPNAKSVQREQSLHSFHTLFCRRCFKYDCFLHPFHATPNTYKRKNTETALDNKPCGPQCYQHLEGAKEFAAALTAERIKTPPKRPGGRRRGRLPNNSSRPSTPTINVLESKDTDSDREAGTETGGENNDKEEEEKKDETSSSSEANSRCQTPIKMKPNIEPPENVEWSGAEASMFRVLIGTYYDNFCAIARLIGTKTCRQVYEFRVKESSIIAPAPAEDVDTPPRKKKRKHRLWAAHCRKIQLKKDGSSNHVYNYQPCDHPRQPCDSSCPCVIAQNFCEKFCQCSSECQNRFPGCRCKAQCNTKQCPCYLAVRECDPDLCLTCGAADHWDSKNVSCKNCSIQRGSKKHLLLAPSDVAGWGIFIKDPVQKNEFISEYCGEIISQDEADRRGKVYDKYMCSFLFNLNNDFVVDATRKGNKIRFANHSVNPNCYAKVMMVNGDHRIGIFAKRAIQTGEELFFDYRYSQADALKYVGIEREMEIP
Chain of purified human, His-tagged PRC2 complex (O75530 whole entry): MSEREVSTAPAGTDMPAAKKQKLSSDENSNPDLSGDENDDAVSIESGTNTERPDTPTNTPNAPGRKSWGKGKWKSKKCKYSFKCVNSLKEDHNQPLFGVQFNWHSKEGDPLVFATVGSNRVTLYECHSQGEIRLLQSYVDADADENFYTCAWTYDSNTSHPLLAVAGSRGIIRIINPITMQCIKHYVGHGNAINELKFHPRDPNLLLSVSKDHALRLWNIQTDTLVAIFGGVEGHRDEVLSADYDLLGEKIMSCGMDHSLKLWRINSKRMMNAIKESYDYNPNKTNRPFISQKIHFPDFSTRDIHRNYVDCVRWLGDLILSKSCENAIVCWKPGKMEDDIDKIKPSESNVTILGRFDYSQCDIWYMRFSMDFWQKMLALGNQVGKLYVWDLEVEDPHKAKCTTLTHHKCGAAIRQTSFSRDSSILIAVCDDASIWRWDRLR
Chain of purified human, His-tagged PRC2 complex (Q15022 whole entry partner): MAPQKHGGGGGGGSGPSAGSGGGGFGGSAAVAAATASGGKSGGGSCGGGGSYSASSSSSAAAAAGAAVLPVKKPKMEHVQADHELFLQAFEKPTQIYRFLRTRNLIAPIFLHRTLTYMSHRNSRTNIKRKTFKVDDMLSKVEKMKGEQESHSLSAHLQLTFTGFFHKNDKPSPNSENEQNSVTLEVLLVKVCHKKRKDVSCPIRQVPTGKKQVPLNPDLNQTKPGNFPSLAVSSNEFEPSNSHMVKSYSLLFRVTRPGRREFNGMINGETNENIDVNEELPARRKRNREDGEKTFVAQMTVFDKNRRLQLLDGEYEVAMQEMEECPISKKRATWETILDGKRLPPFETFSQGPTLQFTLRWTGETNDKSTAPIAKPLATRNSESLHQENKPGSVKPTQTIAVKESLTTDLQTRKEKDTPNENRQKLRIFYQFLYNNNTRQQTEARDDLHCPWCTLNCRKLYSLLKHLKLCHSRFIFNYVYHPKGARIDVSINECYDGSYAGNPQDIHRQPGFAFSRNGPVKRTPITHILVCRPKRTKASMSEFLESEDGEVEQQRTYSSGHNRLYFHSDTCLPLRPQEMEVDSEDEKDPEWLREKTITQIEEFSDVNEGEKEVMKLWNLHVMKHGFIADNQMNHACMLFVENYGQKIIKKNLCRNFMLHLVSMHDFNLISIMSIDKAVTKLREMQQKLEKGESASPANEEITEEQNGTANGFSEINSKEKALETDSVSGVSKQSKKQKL
Chain of purified human, His-tagged PRC2 complex (Q6ZN18 whole entry partner): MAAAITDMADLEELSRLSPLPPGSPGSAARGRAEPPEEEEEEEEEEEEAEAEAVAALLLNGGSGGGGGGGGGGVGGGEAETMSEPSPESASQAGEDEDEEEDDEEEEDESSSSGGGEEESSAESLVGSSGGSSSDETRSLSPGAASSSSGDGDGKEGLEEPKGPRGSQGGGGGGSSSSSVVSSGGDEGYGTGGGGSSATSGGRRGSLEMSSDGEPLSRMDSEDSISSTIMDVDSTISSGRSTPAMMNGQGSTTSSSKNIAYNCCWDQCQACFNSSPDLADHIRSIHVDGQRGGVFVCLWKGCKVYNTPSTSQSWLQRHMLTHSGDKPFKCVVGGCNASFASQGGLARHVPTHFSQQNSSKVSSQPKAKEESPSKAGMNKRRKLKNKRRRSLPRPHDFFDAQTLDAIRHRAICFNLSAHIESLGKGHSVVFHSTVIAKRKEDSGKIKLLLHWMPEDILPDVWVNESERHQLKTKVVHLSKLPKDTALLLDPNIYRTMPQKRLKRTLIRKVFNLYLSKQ
Chain of purified human, His-tagged PRC2 complex (Q09028 whole entry partner): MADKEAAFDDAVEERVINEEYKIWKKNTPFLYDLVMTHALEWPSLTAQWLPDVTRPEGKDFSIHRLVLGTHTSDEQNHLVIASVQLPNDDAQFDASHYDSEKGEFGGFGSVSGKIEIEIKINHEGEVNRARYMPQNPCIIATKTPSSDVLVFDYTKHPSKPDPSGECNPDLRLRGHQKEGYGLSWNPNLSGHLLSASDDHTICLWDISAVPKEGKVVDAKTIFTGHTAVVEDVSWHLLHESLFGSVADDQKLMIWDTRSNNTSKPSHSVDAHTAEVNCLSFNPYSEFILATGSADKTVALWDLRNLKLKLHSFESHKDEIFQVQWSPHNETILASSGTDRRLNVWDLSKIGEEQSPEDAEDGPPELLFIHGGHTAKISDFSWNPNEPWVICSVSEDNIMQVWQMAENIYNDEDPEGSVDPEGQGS
Briefly, compounds of the present invention were solubilized in DMSO and a series of 10, three-fold serial dilutions were made for each compound in 15% DMSO. The initial starting concentration for the serial dilutions of each compound was 1.0 μM. Control samples lacking compound, EZH2 enzyme or various reaction components also were prepared and processed in parallel with compound test samples. SAH (S-(5-adenosyl)-L-homocysteine) was used as a positive control for assay validation.
An aliquot of each serial dilution of test compound was added to deep 384 well plate using Acoustic Technology instrument (Echo 550, LabCyte) containing reaction buffer (50 mM Tris-HCl (pH 8)), 0.01% Brij35, 1 mM EDTA, 1 mM DTT, 1 mM PMSF and 1% DMSO), 10 nM purified PRC2 complex and 0.05 mg/ml core histone H3 in a 5 μl volume. The reaction was mixed gently and then pre-incubated for 20 min at 30° C. The enzymatic reaction was initiated by adding 1 μM S-Adenosyl-L-[methyl-^3H]methionine and incubated for 1 hr at 30° C. After 1 hr, the reaction product was detected using a filter binding method and the amount of tritiated H3 core histone was quantitated using a scintillation counter. The IC50 value for each compound was determined from each 10-point dose-response curve using GraphPad Prism software and the results for compounds of present invention, including compounds of Formula (I) and Formula (II) are shown in Table 6. Key: A=<100 nM; B=>100 nM−<250 nM; and C=>250 nM.

Test [3] has as its system PRC2-mediated histone H3 methylation in Pfeiffer cells (EZH2 A677G). The experiment in a line: Tri-Methyl Histone H3 (Lys 27) sandwich ELISA in Pfeiffer cells. The format is cell-based. The note with it: Homo sapiens, 96 hours incubation, H3K27me3 ELISA, read-out: IC50 (nM), Inhibition of EZH2-mediated Histone H3 Trimethylation. An excerpt:
The Pfeiffer cell line was established from a […] from a patient having metastatic diffuse large B-cell lymphoma (DLBCL). This cell line expresses a mutant form of the EZH2 enzyme (A677G) that results in enhanced EZH2 activity leading to increased methylation of histone H3 Lys27. Increased trimethylation of histone H3 Lys27 is believed to be implicated in tumorgenesis and poor clinical prognosis in lymphomas (McCabe et al., (2012) Nature 492:108-112).
Inhibition of PRC2-mediated histone H3 methylation by compounds of Formula (I) was measured by ELISA using a Tri-Methyl Histone H3 (Lys 27) Sandwich ELISA Kit (Cell Signaling Tech #7866C) in accordance with the manufacturer's instructions. Briefly, Pfeiffer cells were cultured in RPMI medium supplemented with 10% fetal bovine serum and 1% penicillin and 1% streptomycin in 96 well culture plates at 37° C. to a density of 8000 cells/90 μl/well and the cells were harvested. A series of 3-fold serial dilutions of each test compound of Formula (I) were prepared in RPMI medium and added to the cells at final concentrations ranging from […] to 0.15 nM. The plates were incubated at 37° C. for 96 hours.
After incubation, the cells were pelleted by centrifugation in a pre-cooled 4° C. rotor at 1,100 rpm for 10 min and the supernatant was removed by aspiration. The cell pellet was resuspended in 55 μl of Lysis Buffer (0.4M HCl) and incubated on ice with periodic shaking for 30 minutes. The lysed cells were subjected to centrifugation at 4,200 rpm for 10 min at 4° C. and the supernatant containing acid-soluble proteins was collected and the remainder discarded. The acid-soluble proteins were brought to a neutral pH by the addition of 20 μl of Neutralization Buffer (1 M Sodium phosphate, dibasic (pH 12.5), 2.5 mM DTT and 1 mM PMSF) and the neutralized lysates were analyzed by ELISA.
A 65 μl aliquot of each cell lysate was added to a well of a microwell strip, the microwells were sealed using tape and incubated either at 37° C. for two hours or at 4° C. overnight. After incubation, the tape was removed at the microwells were washed four times using 200 μl of 1× Wash Buffer. To each washed microwell, a 100 μl aliquot of an anti-trimethyl histone H3 Lys27 Detection Antibody solution was added and the microwells were incubated at 37° C. for one hour. The Detection Antibody solution was removed by aspiration and the wells were washed four times each using 200 μl of 1× Wash Buffer.
A 100 μl aliquot of an HRP-linked secondary antibody was added to each well, the wells were sealed with tape and incubated at 37° C. for 30 min. The HRP-linked secondary antibody solution was removed by aspiration and the wells were washed four times using 200 μl of 1× Wash Buffer. A 100 μl aliquot of a TMB substrate was added to each well, the wells were sealed with tape and incubated at 37° C. for 10 min or 25° C. for 30 min. The reaction was stopped by the addition of 100 μl aliquot of a STOP solution and the plate was shaken briefly. The degree of histone H3 trimethylation was determined using a spectrophotometric readout by measuring the absorbance at 450 nm and then calculating the amount of trimethylated histone H3. A=≤100 nM; B=>100 nM−≤500 nM; C=>500 nM and N.D.=not determined.
A general note: In an ELISA, binding on a coated surface is turned into a signal by an enzyme label.

Turning to `NS(=O)(=O)c1ccc(-c2cnc(NCc3c(F)ccc4c3CCO4)c3cnncc23)cc1` [Example 1], the IC50 was not above 250 nM in test [1], less than 100 nM in test [2] and not above 100 nM in test [3].
`Fc1ccc2c(c1CNc1ncc(-c3ccc(CN4CCCC4)cc3)c3cnncc13)CCO2` [Example 2]: the values for the IC50 in test [1], in test [2] and in test [3] were not above 250 nM, less than 100 nM and not above 100 nM, respectively.
For `Cc1cc(S(C)(=O)=O)ccc1-c1cnc(NCc2c(F)ccc3c2CCO3)c2cnncc12` [Example 3], the results for the IC50 in test [1], in test [2] and in test [3] were not above 250 nM, less than 100 nM and not above 100 nM, respectively.
As for `Cc1cc(C(=O)N(C)C)ncc1-c1cnc(NCc2c(F)ccc3c2CCO3)c2cnncc12` [Example 4], the IC50 in test [1] was not above 250 nM; in test [2], 100 to 250 nM; in test [3], not above 100 nM.
For the compound `Cc1c(-c2cnc(NCc3c(F)ccc4c3CCO4)c3cnncc23)ccc(CN(C)C)c1F` [Example 5], the IC50 in test [1] was not above 250 nM; in test [2], more than 250 nM; in test [3], not above 100 nM.
On the same counts, the results for `Cc1cc(CN(C)C)ccc1-c1cnc(NCc2c(F)ccc3c2CCO3)c2cnncc12` [Example 6] are not above 250 nM, less than 100 nM and not above 100 nM.
Take `CNS(=O)(=O)c1ccc(-c2cnc(NCc3c(F)ccc4c3CCO4)c3cnncc23)cc1` [Example 7]: the IC50 in test [1] is not above 250 nM; in test [2], less than 100 nM; in test [3], not above 100 nM.
Turning to `CN(C)S(=O)(=O)c1ccc(-c2cnc(NCc3c(F)ccc4c3CCO4)c3cnncc23)cc1` [Example 8], the IC50 in test [1] was not above 250 nM; in test [2], less than 100 nM; in test [3], not above 100 nM.
In the case of `CN(C)C(=O)c1ccc(-c2cnc(NCc3c(F)ccc4c3CCO4)c3cnncc23)cc1` [Example 9], the IC50 in test [1] was not above 250 nM; in test [2] it was 100 to 250 nM; in test [3] it was not above 100 nM.
`CN(C)S(=O)(=O)c1ccc(-c2cnc(NCc3c(F)ccc4c3CCO4)c3cnncc23)cn1` [Example 10]: the figures for the IC50 in test [1], in test [2] and in test [3] were not above 250 nM, less than 100 nM and not above 100 nM, respectively.
In the case of `Cc1ncccc1-c1cnc(NCc2c(F)ccc3c2CCO3)c2cnncc12` [Example 11], the IC50 in test [1] is not above 250 nM; in test [2], less than 100 nM; in test [3], not above 100 nM.
Turning to `Cc1cc(-c2cnc(NCc3c(F)ccc4c3CCO4)c3cnncc23)ccn1` [Example 12], the IC50 in test [1] was not above 250 nM; in test [2], less than 100 nM; in test [3] it was not above 100 nM.
For the compound `Cc1cc(-c2cnc(NCc3c(F)ccc4c3CCO4)c3cnncc23)n(C)n1` [Example 13], the IC50 in test [1] was not above 250 nM; in test [2] it was less than 100 nM; in test [3], not above 100 nM.
As to `CN(C)Cc1ccc(-c2cnc(NCc3c(F)ccc4c3CCO4)c3cnncc23)cc1F` [Example 14], the IC50 was not above 250 nM in test [1], less than 100 nM in test [2] and not above 100 nM in test [3].
With `CN(C)C(=O)c1cc(-c2cnc(NCc3c(F)ccc4c3CCO4)c3cnncc23)n(C)n1` [Example 15, 5-(5-(((5-fluoro-2,3-dihydrobenzofuran-4-yl)methyl)amino)pyrido[3,4-d]pyridazin-8-yl)-N,N,1-trimethyl-1H-pyrazole-3-carboxamide], the IC50 is not above 250 nM in test [1], less than 100 nM in test [2] and not above 100 nM in test [3].
For `Cn1nc(C#N)cc1-c1cnc(NCc2c(F)ccc3c2CCO3)c2cnncc12` [Example 16, 5-(5-(((5-fluoro-2,3-dihydrobenzofuran-4-yl)methyl)amino)pyrido[3,4-d]pyridazin-8-yl)-1-methyl-1H-pyrazole-3-carbonitrile] the same measures were not above 250 nM, less than 100 nM and not above 100 nM.
As to `CN1CCc2cc(-c3cnc(NCc4c(F)ccc5c4CCO5)c4cnncc34)ccc2C1` [Example 17, N-((5-fluoro-2,3-dihydrobenzofuran-4-yl)methyl)-8-(2-methyl-1,2,3,4-tetrahydroisoquinolin-6-yl)pyrido[3,4-d]pyridazin-5-amine], the IC50 is not above 250 nM in test [1], less than 100 nM in test [2] and not above 100 nM in test [3].
As to `CCOc1cc2c(-c3cc(C)nn3C)cnc(NCc3c(F)ccc4c3CCO4)c2cn1` [Example 42, 4-(1,3-dimethyl-1H-pyrazol-5-yl)-6-ethoxy-N-((5-fluoro-2,3-dihydrobenzofuran-4-yl)methyl)-2,7-naphthyridin-1-amine], the IC50 in test [2] is 100 to 250 nM.
